Laboratory results from patent US10669242B2 (priority 2016, dated 2020).
“Also recorded” adds a separate entry of the source.

What was measured:
[1] = biological target: T1, C. difficile full-length toxin TcdB (Clostridioides difficile, UniProt P18177); experiment: cell-based
T1 construct: C. difficile full-length toxins (TcdA or TcdB); purchased EMD Millipore 616377

[2] = biological target: T2, recombinant glucosyltransferase domain of C. difficile Toxin B/TcdB (Clostridioides difficile, UniProt P18177); experiment: biochemical
T2 construct: 6-His (C); purchased R&D Systems 6246-GT
T2 sequence (P18177 1-543): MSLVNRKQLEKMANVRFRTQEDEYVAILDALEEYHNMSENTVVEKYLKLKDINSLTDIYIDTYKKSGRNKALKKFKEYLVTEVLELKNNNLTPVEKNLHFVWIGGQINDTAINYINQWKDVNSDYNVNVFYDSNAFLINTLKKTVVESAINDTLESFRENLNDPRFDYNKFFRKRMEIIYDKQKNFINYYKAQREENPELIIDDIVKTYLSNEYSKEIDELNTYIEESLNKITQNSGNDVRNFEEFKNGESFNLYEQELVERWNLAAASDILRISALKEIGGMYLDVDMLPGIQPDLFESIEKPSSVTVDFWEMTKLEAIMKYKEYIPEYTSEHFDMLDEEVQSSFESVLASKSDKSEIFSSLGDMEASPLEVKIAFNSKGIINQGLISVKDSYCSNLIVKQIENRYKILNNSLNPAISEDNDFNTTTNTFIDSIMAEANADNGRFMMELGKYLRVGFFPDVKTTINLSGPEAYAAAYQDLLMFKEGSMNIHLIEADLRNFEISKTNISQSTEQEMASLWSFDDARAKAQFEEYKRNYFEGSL

[3] = biological target: T3, C. difficile full-length toxin TcdA (Clostridioides difficile, UniProt P16154); experiment: cell-based
T3 construct: C. difficile full-length toxins (TcdA or TcdB); purchased Enzo Life Sciences BML-G140-0050

[4] = test system: C. difficile toxin (TcdA and TcdB, ~1:1); experiment: Murine C. difficile toxin model (intrarectal toxin); assay type: in vivo, C57BL/6 mice; details: for IL-1β (% Inhibition) / MPO (% Inhibition): murine C. difficile toxin model, PO, 50 mg/kg body weight
[5] = test system: C. difficile; assay type: in vivo, C57/BL6 mice; details: relapse model; for weight loss, days 8-9 after infection: PO, vancomycin 20 mg/kg once per day for five days
[6] = oral (PO), 50 mg/kg, intrarectal toxin 12.5 μg
[7] = intraperitoneal (IP), 50 mg/kg, intrarectal toxin 12.5 μg
[8] = intrarectal (IR) co-administration with toxin (12.5 μg), 25 mg/kg, ~12.5 mg/kg, 4 hours

T1 sequence (P18177 2-2366 limits assumed): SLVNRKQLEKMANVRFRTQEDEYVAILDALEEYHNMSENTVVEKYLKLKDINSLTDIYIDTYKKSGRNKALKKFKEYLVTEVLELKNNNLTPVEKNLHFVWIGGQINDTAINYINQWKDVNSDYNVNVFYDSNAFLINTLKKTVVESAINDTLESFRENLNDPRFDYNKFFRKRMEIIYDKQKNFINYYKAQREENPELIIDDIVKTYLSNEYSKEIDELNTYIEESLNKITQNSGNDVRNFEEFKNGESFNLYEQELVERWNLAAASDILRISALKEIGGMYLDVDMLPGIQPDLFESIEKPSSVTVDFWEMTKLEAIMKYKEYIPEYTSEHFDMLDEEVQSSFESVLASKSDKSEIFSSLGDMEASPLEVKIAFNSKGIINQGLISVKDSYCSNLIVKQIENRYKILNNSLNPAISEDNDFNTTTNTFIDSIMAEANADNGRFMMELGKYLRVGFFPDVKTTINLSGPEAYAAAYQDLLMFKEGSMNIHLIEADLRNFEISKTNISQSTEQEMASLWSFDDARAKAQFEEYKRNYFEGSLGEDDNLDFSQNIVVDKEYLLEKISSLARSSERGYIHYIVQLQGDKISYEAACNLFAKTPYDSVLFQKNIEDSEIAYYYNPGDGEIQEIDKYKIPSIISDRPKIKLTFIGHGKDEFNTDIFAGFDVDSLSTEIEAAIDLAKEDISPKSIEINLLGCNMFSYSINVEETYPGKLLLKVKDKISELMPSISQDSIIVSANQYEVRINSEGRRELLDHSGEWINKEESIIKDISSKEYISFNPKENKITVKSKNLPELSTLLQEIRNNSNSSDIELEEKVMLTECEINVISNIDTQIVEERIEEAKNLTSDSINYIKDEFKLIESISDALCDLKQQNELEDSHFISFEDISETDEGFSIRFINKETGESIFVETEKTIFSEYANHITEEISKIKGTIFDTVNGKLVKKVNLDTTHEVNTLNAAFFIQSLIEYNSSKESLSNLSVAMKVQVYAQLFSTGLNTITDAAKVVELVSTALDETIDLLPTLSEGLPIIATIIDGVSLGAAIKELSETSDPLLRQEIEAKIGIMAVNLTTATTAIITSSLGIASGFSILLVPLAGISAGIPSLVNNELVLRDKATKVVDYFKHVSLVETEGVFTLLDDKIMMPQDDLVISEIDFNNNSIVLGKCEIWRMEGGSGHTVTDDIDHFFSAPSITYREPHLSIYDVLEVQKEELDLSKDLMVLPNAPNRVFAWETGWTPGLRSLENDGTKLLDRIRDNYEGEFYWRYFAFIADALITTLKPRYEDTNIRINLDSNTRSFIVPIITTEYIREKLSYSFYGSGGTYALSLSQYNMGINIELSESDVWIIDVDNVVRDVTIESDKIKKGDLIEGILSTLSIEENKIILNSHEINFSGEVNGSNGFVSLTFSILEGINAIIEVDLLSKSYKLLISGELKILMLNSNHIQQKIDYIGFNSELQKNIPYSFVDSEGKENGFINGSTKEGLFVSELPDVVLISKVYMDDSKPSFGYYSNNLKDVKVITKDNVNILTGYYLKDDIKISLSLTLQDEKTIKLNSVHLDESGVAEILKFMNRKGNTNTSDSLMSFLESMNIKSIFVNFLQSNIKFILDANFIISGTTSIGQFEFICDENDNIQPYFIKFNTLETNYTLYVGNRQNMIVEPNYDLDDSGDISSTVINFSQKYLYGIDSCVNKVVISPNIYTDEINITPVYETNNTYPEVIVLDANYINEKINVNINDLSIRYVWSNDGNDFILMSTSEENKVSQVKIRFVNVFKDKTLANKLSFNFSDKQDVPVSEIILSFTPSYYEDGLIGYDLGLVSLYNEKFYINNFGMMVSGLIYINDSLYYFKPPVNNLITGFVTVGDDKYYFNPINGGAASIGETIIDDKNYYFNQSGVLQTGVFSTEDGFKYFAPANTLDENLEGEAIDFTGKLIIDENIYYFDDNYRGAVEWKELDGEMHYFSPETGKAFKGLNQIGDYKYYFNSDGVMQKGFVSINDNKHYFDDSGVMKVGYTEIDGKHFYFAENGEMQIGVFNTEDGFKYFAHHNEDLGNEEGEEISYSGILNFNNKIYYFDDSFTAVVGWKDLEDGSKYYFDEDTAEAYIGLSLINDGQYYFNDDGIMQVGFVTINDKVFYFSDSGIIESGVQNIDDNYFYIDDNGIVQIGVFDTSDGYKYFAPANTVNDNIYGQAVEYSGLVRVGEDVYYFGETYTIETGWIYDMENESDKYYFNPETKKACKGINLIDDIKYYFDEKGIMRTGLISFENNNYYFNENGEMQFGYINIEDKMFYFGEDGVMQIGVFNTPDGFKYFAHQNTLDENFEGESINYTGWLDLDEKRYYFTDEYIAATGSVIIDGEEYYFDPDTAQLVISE

## O=C(Nc1ccc(C(F)(F)F)cn1)c1ccc(CN2C(=O)c3ccc(Cl)cc3NC(=O)[C@H]2Cc2ccccn2)cc1Cl [Example 5ae, (R)-2-Chloro-4-((8-chloro-2,5-dioxo-3-(pyridin-2-ylmethyl)-2,3-dihydro-1H-benzo[e][1,4]diazepin-4(5H)-yl)methyl)-N-(5-(trifluoromethyl)pyridin-2-yl)benzamide]
[1]
  IC50: 100 to 999 nM
[2]
  IC50: < 100 nM
[3]
  IC50: 1000 to 10000 nM
[4]
  IL-1β (% Inhibition): 81%
  MPO (% Inhibition): 79%
[4]; [6]
  IL-1β in colon tissue: reduced the levels of IL-1β
  MPO in colon tissue: reduced
  toxin effect on colon length: reduced the C. difficile toxin-mediated effects on colon length
[5]; 8 mice per group
  mice that died/expired on Days 8-9: none
  relapsing disease: prevention of relapsing disease
[5]; Day 4, 8 mice per group
  mice euthanized due to body weight loss of >20%: 1
[5]
  weight loss, days 8-9 after infection: significantly reduced weight loss 8.0, 8.5 and 9.0 days after infection

## COc1ccc(NC(=O)c2ccc(CN3C(=O)c4ccc(Cl)cc4NC(=O)[C@H]3Cc3ccccn3)cc2F)nc1 [Example 6a, (R)-4-((8-Chloro-2,5-dioxo-3-(pyridin-2-ylmethyl)-2,3-dihydro-1H-benzo[e][1,4]diazepin-4(5H)-yl)methyl)-2-fluoro-N-(5-methoxypyridin-2-yl)benzamide]
[1]
  IC50: < 100 nM
[2]
  IC50: < 100 nM
[3]
  IC50: 100 to 999 nM
[4]; [7]
  IL-1β in colon tissue: decreased the C. difficile toxin-induced IL-1β; also recorded: reduced the concentrations of IL-1β
  MPO in colon tissue: decreased; also recorded: reduced
  toxin effect on colon length: reduced the C. difficile toxin-mediated effects on colon length; also recorded: effective in reducing the C. difficile toxin effects on colon length
[4]; [8]
  toxin effect on colon length: reduced the C. difficile toxin-mediated effects on colon length
  toxin-induced IL-1β in colon tissue: decreased the C. difficile toxin-induced IL-1β
  toxin-induced MPO in colon tissue: decreased
[4]
  IL-1β (% Inhibition): 80%
  MPO (% Inhibition): 81%
[4]; [6]
  IL-1β in colon tissue: decreased the C. difficile toxin-induced IL-1β; also recorded: reduced the levels of IL-1β; also recorded: reduced the concentrations of IL-1β
  MPO in colon tissue: decreased; also recorded: reduced
  toxin effect on colon length: reduced the C. difficile toxin-mediated effects on colon length; also recorded: effective in reducing the C. difficile toxin effects on colon length
[4]; oral (PO), intrarectal toxin 12.5 μg
  colon histopathology: prevention of tissue damage; also recorded: improved the colon histopathology
[5]; 8 mice per group
  mice that died/expired on Days 8-9: none
  relapsing disease: prevention of relapsing disease
[5]
  weight loss, days 8-9 after infection: significantly reduced weight loss 8.0, 8.5 and 9.0 days after infection
